Columns and labels:
Assay in all cases: relative viability (nuclei count vs DMSO), 5 days (fraction); higher = more cells survive
Zebularine + Olaparib = compound: O=c1ncccn1[C@@H]1O[C@H](CO)[C@@H](O)[C@H]1O [Zebularine] + O=C(c1cc(Cc2n[nH]c(=O)c3ccccc23)ccc1F)N1CCN(C(=O)C2CC2)CC1 [Olaparib] (partner 8 µM)
Summary of the method: (§1)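 Relative viability equals treated-well nuclei counts divided by vehicle-well nuclei counts. Counts came from 4× images of lung cancer cell lines grown in 1536-well plates for 5 days after pin-tool dosing on the day after seeding. Dosing used one drug alone or a fixed anchor-drug dose plus five library-drug doses (not always all listed) in √10 steps, and values are medians of duplicate plates.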

BI-D1870 + Vorinostat = compound: CC(C)CCN1c2nc(Nc3cc(F)c(O)c(F)c3)ncc2N(C)C(=O)C1C [BI-D1870] + O=C(CCCCCCC(=O)Nc1ccccc1)NO [Vorinostat] (partner 1 µM)
Summary of the method: as §1

Zebularine + Luminespib = compound: O=c1ncccn1[C@@H]1O[C@H](CO)[C@@H](O)[C@H]1O [Zebularine] + CCNC(=O)c1noc(-c2cc(C(C)C)c(O)cc2O)c1-c1ccc(CN2CCOCC2)cc1 [Luminespib] (partner 0.01 µM)
Summary of the method: as §1

Zebularine + Tozasertib = compound: O=c1ncccn1[C@@H]1O[C@H](CO)[C@@H](O)[C@H]1O [Zebularine] + Cc1cc(Nc2cc(N3CCN(C)CC3)nc(Sc3ccc(NC(=O)C4CC4)cc3)n2)n[nH]1 [Tozasertib] (partner 0.1 µM)
Summary of the method: as §1

## NCI-H1651
Zebularine + Olaparib; first compound 1 µM
  relative viability: 0.183
Zebularine + Olaparib; first compound 3.162 µM
  relative viability: 0.188
Zebularine + Olaparib; first compound 10 µM
  relative viability: 0.187
Zebularine + Olaparib; first compound 31.62 µM
  relative viability: 0.165
Zebularine + Olaparib; first compound 100 µM
  relative viability: 0.166
BI-D1870 + Vorinostat; first compound 0.04 µM
  relative viability: 0.557
BI-D1870 + Vorinostat; first compound 0.1265 µM
  relative viability: 0.536
BI-D1870 + Vorinostat; first compound 0.4 µM
  relative viability: 0.472
BI-D1870 + Vorinostat; first compound 1.265 µM
  relative viability: 0.623
BI-D1870 + Vorinostat; first compound 4 µM
  relative viability: 0.451
Zebularine + Luminespib; first compound 1 µM
  relative viability: 0.986
Zebularine + Luminespib; first compound 3.162 µM
  relative viability: 0.831
Zebularine + Luminespib; first compound 10 µM
  relative viability: 0.688
Zebularine + Luminespib; first compound 31.62 µM
  relative viability: 0.738
Zebularine + Luminespib; first compound 100 µM
  relative viability: 0.519
Zebularine + Tozasertib; first compound 1 µM
  relative viability: 0.869
Zebularine + Tozasertib; first compound 3.162 µM
  relative viability: 0.679
Zebularine + Tozasertib; first compound 10 µM
  relative viability: 0.389
Zebularine + Tozasertib; first compound 31.62 µM
  relative viability: 0.623
Zebularine + Tozasertib; first compound 100 µM
  relative viability: 0.455

## NCI-H441
Zebularine + Olaparib; first compound 1 µM
  relative viability: 0.568
Zebularine + Olaparib; first compound 3.162 µM
  relative viability: 0.41
Zebularine + Olaparib; first compound 10 µM
  relative viability: 0.32
Zebularine + Olaparib; first compound 31.62 µM
  relative viability: 0.227
Zebularine + Olaparib; first compound 100 µM
  relative viability: 0.24
BI-D1870 + Vorinostat; first compound 0.04 µM
  relative viability: 0.686
BI-D1870 + Vorinostat; first compound 0.1265 µM
  relative viability: 0.794
BI-D1870 + Vorinostat; first compound 0.4 µM
  relative viability: 0.731
BI-D1870 + Vorinostat; first compound 1.265 µM
  relative viability: 0.722
BI-D1870 + Vorinostat; first compound 4 µM
  relative viability: 0.655
Zebularine + Luminespib; first compound 1 µM
  relative viability: 0.301
Zebularine + Luminespib; first compound 3.162 µM
  relative viability: 0.266
Zebularine + Luminespib; first compound 10 µM
  relative viability: 0.298
Zebularine + Luminespib; first compound 31.62 µM
  relative viability: 0.244
Zebularine + Luminespib; first compound 100 µM
  relative viability: 0.225
Zebularine + Tozasertib; first compound 1 µM
  relative viability: 0.825
Zebularine + Tozasertib; first compound 3.162 µM
  relative viability: 0.711
Zebularine + Tozasertib; first compound 10 µM
  relative viability: 0.334
Zebularine + Tozasertib; first compound 31.62 µM
  relative viability: 0.221
Zebularine + Tozasertib; first compound 100 µM
  relative viability: 0.344

## LCLC-103H
Zebularine + Olaparib; first compound 1 µM
  relative viability: 0.839
Zebularine + Olaparib; first compound 3.162 µM
  relative viability: 0.829
Zebularine + Olaparib; first compound 10 µM
  relative viability: 0.597
Zebularine + Olaparib; first compound 31.62 µM
  relative viability: 0.632
Zebularine + Olaparib; first compound 100 µM
  relative viability: 0.637
BI-D1870 + Vorinostat; first compound 0.04 µM
  relative viability: 0.886
BI-D1870 + Vorinostat; first compound 0.1265 µM
  relative viability: 0.719
BI-D1870 + Vorinostat; first compound 0.4 µM
  relative viability: 0.786
BI-D1870 + Vorinostat; first compound 1.265 µM
  relative viability: 0.755
BI-D1870 + Vorinostat; first compound 4 µM
  relative viability: 0.535
Zebularine + Luminespib; first compound 1 µM
  relative viability: 1.07
Zebularine + Luminespib; first compound 3.162 µM
  relative viability: 0.996
Zebularine + Luminespib; first compound 10 µM
  relative viability: 0.696
Zebularine + Luminespib; first compound 31.62 µM
  relative viability: 0.705
Zebularine + Luminespib; first compound 100 µM
  relative viability: 0.475
Zebularine + Tozasertib; first compound 1 µM
  relative viability: 0.448
Zebularine + Tozasertib; first compound 3.162 µM
  relative viability: 0.43
Zebularine + Tozasertib; first compound 10 µM
  relative viability: 0.402
Zebularine + Tozasertib; first compound 31.62 µM
  relative viability: 0.471
Zebularine + Tozasertib; first compound 100 µM
  relative viability: 0.355

## LCLC-97TM1
Zebularine + Olaparib; first compound 1 µM
  relative viability: 0.404
Zebularine + Olaparib; first compound 3.162 µM
  relative viability: 0.289
Zebularine + Olaparib; first compound 10 µM
  relative viability: 0.138
Zebularine + Olaparib; first compound 31.62 µM
  relative viability: 0.104
Zebularine + Olaparib; first compound 100 µM
  relative viability: 0.119
BI-D1870 + Vorinostat; first compound 0.04 µM
  relative viability: 1
BI-D1870 + Vorinostat; first compound 0.1265 µM
  relative viability: 0.684
BI-D1870 + Vorinostat; first compound 0.4 µM
  relative viability: 0.722
BI-D1870 + Vorinostat; first compound 1.265 µM
  relative viability: 0.868
BI-D1870 + Vorinostat; first compound 4 µM
  relative viability: 0.472
Zebularine + Luminespib; first compound 1 µM
  relative viability: 0.806
Zebularine + Luminespib; first compound 3.162 µM
  relative viability: 0.777
Zebularine + Luminespib; first compound 10 µM
  relative viability: 0.427
Zebularine + Luminespib; first compound 31.62 µM
  relative viability: 0.241
Zebularine + Luminespib; first compound 100 µM
  relative viability: 0.21
Zebularine + Tozasertib; first compound 1 µM
  relative viability: 0.253
Zebularine + Tozasertib; first compound 3.162 µM
  relative viability: 0.225
Zebularine + Tozasertib; first compound 10 µM
  relative viability: 0.191
Zebularine + Tozasertib; first compound 31.62 µM
  relative viability: 0.102
Zebularine + Tozasertib; first compound 100 µM
  relative viability: 0.115
